Results on 19 compounds are retold here after patent US8207177B2, “Inhibitors of E1 activating enzymes” (Millennium Pharmaceuticals, Inc., priority 2006, dated 2012).

The target of the experiment is T1, recombinant human NAE enzyme (Homo sapiens, UniProt Q8TBC4).
T1 construct: His (N); made in house; host or cells: Sf9 insect cells (baculovirus, Bac-to-Bac), purified on Ni-NTA
T1 sequence (Q8TBC4 1-463): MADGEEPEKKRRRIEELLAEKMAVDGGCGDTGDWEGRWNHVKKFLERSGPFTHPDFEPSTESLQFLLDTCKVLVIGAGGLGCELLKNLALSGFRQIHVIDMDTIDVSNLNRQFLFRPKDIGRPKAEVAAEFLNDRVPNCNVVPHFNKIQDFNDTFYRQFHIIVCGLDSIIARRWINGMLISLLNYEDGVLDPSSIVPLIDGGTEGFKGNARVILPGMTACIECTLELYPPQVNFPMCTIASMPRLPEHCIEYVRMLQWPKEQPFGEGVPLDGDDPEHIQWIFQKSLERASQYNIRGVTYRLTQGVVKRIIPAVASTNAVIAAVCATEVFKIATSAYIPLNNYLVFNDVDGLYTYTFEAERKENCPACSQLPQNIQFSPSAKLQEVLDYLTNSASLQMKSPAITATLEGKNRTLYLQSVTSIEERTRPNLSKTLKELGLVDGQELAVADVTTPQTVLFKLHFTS
T1 sequence (Q13564 1-534 partner): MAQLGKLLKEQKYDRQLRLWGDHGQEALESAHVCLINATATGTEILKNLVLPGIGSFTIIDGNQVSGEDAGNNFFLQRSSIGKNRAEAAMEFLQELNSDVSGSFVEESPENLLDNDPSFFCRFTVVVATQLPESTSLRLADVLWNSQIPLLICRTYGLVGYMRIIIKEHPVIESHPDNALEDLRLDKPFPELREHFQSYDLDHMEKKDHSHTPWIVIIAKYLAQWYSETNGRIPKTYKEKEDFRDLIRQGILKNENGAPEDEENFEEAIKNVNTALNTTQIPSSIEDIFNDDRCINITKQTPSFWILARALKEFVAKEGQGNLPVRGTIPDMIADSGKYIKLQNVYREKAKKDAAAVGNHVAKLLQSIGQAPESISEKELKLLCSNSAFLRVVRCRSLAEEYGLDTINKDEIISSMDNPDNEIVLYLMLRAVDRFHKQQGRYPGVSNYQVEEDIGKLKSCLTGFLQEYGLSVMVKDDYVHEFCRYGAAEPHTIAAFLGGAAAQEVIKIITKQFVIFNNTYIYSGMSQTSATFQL
Nature of the experiment: Nedd8-Activating Enzyme (NAE) HTRF Assay. In kind it is biochemical. The note with it: threshold statement: less than or equal to 100 nM; 20 μM ATP, 90 minutes at 24° C. The protocol:
Following manufacturer instructions, baculoviruses were generated with the Bac-to-Bac Expression System (Invitrogen) for the following proteins: untagged NAEα (APPBP1; NP_003896.1), N-terminally His-tagged NAEβ (UBE1C; NP_003959.3), untagged SAEα (SAE1; NP_005491.1), N-terminally His-tagged SAEβ (UBA2; NP_005490.1), N-terminally His-tagged murine UAE (UBE1X; NP_033483). NAEα/His-NAEβ and SAEα/His-SAEβ complexes were generated by co-infection of Sf9 cells, which were harvested after 48 hours. His-mUAE was generated by single infection of Sf9 cells and harvested after 72 hours. Expressed proteins were purified by affinity chromatography (Ni—NTA agarose, Qiagen) using standard buffers. Ubc12 (UBE2M; NP_003960.1), Ubc9 (UBE2I; NP_003336.1), Ubc2 (UBE2A; NP_003327.2) were subcloned into pGEX (Pharmacia) and expressed as N-terminally GST tagged fusion proteins in E. coli. Expressed proteins were purified by conventional affinity chromatography using standard buffers. Nedd8 (NP_006147), Sumo-1 (NP_003343) and Ubiquitin (with optimized codons) were subcloned into pFLAG-2 (Sigma) and expressed as N-terminally Flag tagged fusion proteins in E. coli. Expressed proteins were purified by conventional chromatography using standard buffers. Nedd8-Activating Enzyme (NAE) HTRF Assay. The NAE enzymatic reaction totaled 50 μL and contained 50 mM HEPES (pH 7.5), 0.05% BSA, 5 mM MgCl2, 20 μM ATP, 250 μM GSH, 0.01 μM Ubc12-GST, 0.075 μM Nedd8-Flag and 0.28 nM recombinant human NAE enzyme. The enzymatic reaction mixture, with and without compound inhibitor, was incubated at 24° C. for 90 minutes in a 384-well plate before termination with 25 μL of Stop/Detection buffer (0.1M HEPES pH 7.5, 0.05% Tween20, 20 mM EDTA, 410 mM KF, 0.53 nM Europium-Cryptate labeled monoclonal anti-FLAG M2 antibody (CisBio International) and 8.125 μg/mL PHYCOLINK goat anti-GST allophycocyanin (XL-APC) antibody (Prozyme)). After incubation for 3 hours at 24° C., quantification of the FRET was performed on the Analyst™ HT 96.384 (Molecular Devices).

pIC50: −log10 of the molar value.

Take `CC[C@@H]1Cc2ccccc2[C@@H]1Nc1ncnc2c1ccn2[C@@H]1C[C@@H](COS(N)(=O)=O)[C@@H](O)C1` [Compound I-83, [(1S,2S,4R)-4-(4-{[(1R,2R)-2-ethyl-2,3-dihydro-1H-inden-1-yl]amino}-7H-pyrrolo[2,3-d]pyrimidin-7-yl)-2-hydroxycyclopentyl]methyl sulfamate]: the pIC50 was at least 7.00. For `CO[C@H]1Cc2ccccc2[C@H]1Nc1ncnc2c1c(F)cn2[C@@H]1C[C@@H](COS(N)(=O)=O)[C@@H](O)C1` [Compound I-69, [(1S,2S,4R)-4-(5-fluoro-4-{[(1R,2S)-2-methoxy-2,3-dihydro-1H-inden-1-yl]amino}-7H-pyrrolo[2,3-d]pyrimidin-7-yl)-2-hydroxycyclopentyl]methyl sulfamate] the value was at least 7.00. `NS(=O)(=O)OC[C@@H]1C[C@@H](n2ccc3c(N[C@H]4CCc5cc(F)ccc54)ncnc32)C[C@@H]1O` [Compound I-36, [(1S,2S,4R)-4-(4-{[(1S)-5-fluoro-2,3-dihydro-1H-inden-1-yl]amino}-7H-pyrrolo-[2,3-d]pyrimidin-7-yl)-2-hydroxycyclopentyl]methyl sulfamate]: the pIC50 is at least 7.00. For `NS(=O)(=O)OC[C@@H]1C[C@@H](n2ccc3c(NCc4ccccc4OC(F)F)ncnc32)C[C@@H]1O` [Compound I-2, [(1S,2S,4R)-4-(4-{[2-(difluoromethoxy)benzyl]amino}-7H-pyrrolo[2,3-d]-pyrimidin-7-yl)-2-hydroxycyclopentyl]methyl sulfamate] the value was at least 7.00; for `CC[C@H]1Cc2ccccc2[C@H]1Nc1ncnc2c1ccn2[C@@H]1C[C@@H](COS(N)(=O)=O)[C@@H](O)C1` [Compound I-84, [(1S,2S,4R)-4-(4-{[(1S,2S)-2-ethyl-2,3-dihydro-1H-inden-1-yl]amino}-7H-pyrrolo[2,3-d]pyrimidin-7-yl)-2-hydroxycyclopentyl]methyl sulfamate], at least 7.00; for `CC1(C)C[C@@H](Nc2ncnc3c2ccn3[C@@H]2C[C@@H](COS(N)(=O)=O)[C@@H](O)C2)c2ccccc21` (single isomer, unassigned) [Compound I-21], at least 7.00. As to `CO[C@H]1CCc2ccccc2[C@H]1Nc1ncnc2c1ccn2[C@@H]1C[C@@H](COS(N)(=O)=O)[C@@H](O)C1` [Compound I-85, [(1S,2S,4R)-2-hydroxy-4-(4-{[(1R,2S)-2-methoxy-1,2,3,4-tetrahydronaphthalen-1-yl]amino}-7H-pyrrolo[2,3-d]pyrimidin-7-yl)cyclopentyl]methyl sulfamate], the pIC50 is at least 7.00. Consider `NS(=O)(=O)OC[C@@H]1C[C@@H](n2ccc3c(N[C@@H]4c5ccccc5C[C@@H]4O)ncnc32)C[C@@H]1O` [Compound I-71, [(1S,2S,4R)-2-hydroxy-4-(4-{[(1R,2S)-2-hydroxy-2,3-dihydro-1H-inden-1-yl]amino}-7H-pyrrolo[2,3-d]pyrimidin-7-yl)cyclopentyl]methyl sulfamate], for which the pIC50 was at least 7.00. Regarding `NS(=O)(=O)OC[C@@H]1C[C@@H](n2ccc3c(NCC4CC4)ncnc32)C[C@@H]1O` [Compound I-25, ((1S,2S,4R)-4-{4-[(cyclopropylmethyl)amino]-7H-pyrrolo[2,3-d]pyrimidin-7-yl}-2-hydroxycyclopentyl)methyl sulfamate], the pIC50 is at least 7.00.

As for `NS(=O)(=O)OC[C@@H]1C[C@@H](n2ccc3c(NCc4cccc(Cl)c4)ncnc32)C[C@@H]1O` [Compound I-51, ((1S,2S,4R)-4-{4-[(3-chlorobenzyl)amino]-7H-pyrrolo[2,3-d]pyrimidin-7-yl}-2-hydroxycyclopentyl)methyl sulfamate], the pIC50 is at least 7.00.

As for `NS(=O)(=O)OC[C@@H]1C[C@@H](n2ccc3c(N[C@H]4CCc5c(F)ccc(F)c54)ncnc32)C[C@@H]1O` [Compound I-62, [(1S,2S,4R)-4-(4-{[(1S)-4,7-difluoro-2,3-dihydro-1H-inden-1-yl]amino}-7H-pyrrolo[2,3-d]pyrimidin-7-yl)-2-hydroxycyclopentyl]methyl sulfamate], the pIC50 was at least 7.00.

For `NS(=O)(=O)OC[C@@H]1C[C@@H](n2ccc3c(NCc4ccc(Cl)cc4)ncnc32)C[C@@H]1O` [Compound I-45, ((1S,2S,4R)-4-{4-[(4-chlorobenzyl)amino]-7H-pyrrolo[2,3-d]pyrimidin-7-yl}-2-hydroxycyclopentyl)methyl sulfamate], the pIC50 is at least 7.00.

Consider `NS(=O)(=O)OC[C@@H]1C[C@@H](n2ccc3c(N[C@H]4CCCc5ccccc54)ncnc32)C[C@@H]1O` [Compound I-37, ((1S,2S,4R)-2-hydroxy-4-{4-[(1S)-1,2,3,4-tetrahydronaphthalen-1-ylamino]-7H-pyrrolo[2,3-d]pyrimidin-7-yl}cyclopentyl)methyl sulfamate], for which the pIC50 is at least 7.00.

On to `NS(=O)(=O)NC[C@@H]1C[C@@H](n2ccc3c(N[C@H]4CCc5ccccc54)ncnc32)C[C@@H]1O` [Compound I-56, N-[((1S,2S,4R)-4-{4-[(1S)-2,3-dihydro-1H-inden-1-ylamino]-7H-pyrrolo[2,3-d]-pyrimidin-7-yl}-2-hydroxycyclopentyl)methyl]sulfamide], for which the negative-log IC50 (pIC50) is at least 7.00.

Consider `C[C@H]1Cc2ccccc2[C@H]1Nc1ncnc2c1ccn2[C@@H]1C[C@@H](COS(N)(=O)=O)[C@@H](O)C1` [Compound I-82, [(1S,2S,4R)-2-hydroxy-4-(4-{[(1S,2S)-2-methyl-2,3-dihydro-1H-inden-1-yl]amino}-7H-pyrrolo[2,3-d]pyrimidin-7-yl)cyclopentyl]methyl sulfamate], for which the pIC50 was at least 7.00. With `C[C@H](Nc1ncnc2c1ccn2[C@@H]1C[C@@H](COS(N)(=O)=O)[C@@H](O)C1)c1ccccc1` [Compound I-4, [(1S,2S,4R)-2-hydroxy-4-(4-{[(1S)-1-phenylethyl]amino}-7H-pyrrolo[2,3-d]-pyrimidin-7-yl)cyclopentyl]methyl sulfamate] the figure was at least 7.00; with `NS(=O)(=O)CC[C@@H]1C[C@@H](n2ccc3c(N[C@H]4CCc5ccccc54)ncnc32)C[C@@H]1O` [Compound I-59, 2-((1S,2S,4R)-4-{4-[(1S)-2,3-dihydro-1H-inden-1-ylamino]-7H-pyrrolo[2,3-d]-pyrimidin-7-yl}-2-hydroxycyclopentyl)ethanesulfonamide], at least 7.00. With `NS(=O)(=O)OC[C@@H]1C[C@@H](n2ccc3c(NCc4ccc(Cl)cc4C(F)(F)F)ncnc32)C[C@@H]1O` [Compound I-42, [(1S,2S,4R)-4-(4-{[4-chloro-2-(trifluoromethyl)benzyl]amino}-7H-pyrrolo[2,3-d]-pyrimidin-7-yl)-2-hydroxycyclopentyl]methyl sulfamate] the figure was at least 7.00; with `Cc1cc(CNc2ncnc3c2ccn3[C@@H]2C[C@@H](COS(N)(=O)=O)[C@@H](O)C2)no1` [Compound I-41, [(1S,2S,4R)-2-hydroxy-4-(4-{[(5-methylisoxazol-3-yl)methyl]amino}-7H-pyrrolo-[2,3-d]pyrimidin-7-yl)cyclopentyl]methyl sulfamate], at least 7.00.
